# Laboratory results taken from ChEMBL document CHEMBL4017490, “Design, Synthesis, and Pharmacological Evaluation of Novel Multisubstituted Pyridin-3-amine Derivatives as Multitargeted Protein Kinase Inhibitors for the Treatment of Non-Small Cell Lung Cancer” (J Med Chem, 2017).
# pIC50: −log10 of the molar value.
# How the values were obtained:
# [1] = target: Fibroblast growth factor receptor 2 (Homo sapiens, UniProt P21802)
# Description: Inhibition of recombinant human FGFR2 using poly (Glu,Tyr) 4:1 as substrate after 60 mins by ELISA
# [2] = target: Fibroblast growth factor receptor 1 (Homo sapiens, UniProt P11362); assay: Inhibition of recombinant human FGFR1 using poly (Glu,Tyr) 4:1 as substrate after 60 mins by ELISA
# Sequence of Fibroblast growth factor receptor 1 (P11362 whole entry): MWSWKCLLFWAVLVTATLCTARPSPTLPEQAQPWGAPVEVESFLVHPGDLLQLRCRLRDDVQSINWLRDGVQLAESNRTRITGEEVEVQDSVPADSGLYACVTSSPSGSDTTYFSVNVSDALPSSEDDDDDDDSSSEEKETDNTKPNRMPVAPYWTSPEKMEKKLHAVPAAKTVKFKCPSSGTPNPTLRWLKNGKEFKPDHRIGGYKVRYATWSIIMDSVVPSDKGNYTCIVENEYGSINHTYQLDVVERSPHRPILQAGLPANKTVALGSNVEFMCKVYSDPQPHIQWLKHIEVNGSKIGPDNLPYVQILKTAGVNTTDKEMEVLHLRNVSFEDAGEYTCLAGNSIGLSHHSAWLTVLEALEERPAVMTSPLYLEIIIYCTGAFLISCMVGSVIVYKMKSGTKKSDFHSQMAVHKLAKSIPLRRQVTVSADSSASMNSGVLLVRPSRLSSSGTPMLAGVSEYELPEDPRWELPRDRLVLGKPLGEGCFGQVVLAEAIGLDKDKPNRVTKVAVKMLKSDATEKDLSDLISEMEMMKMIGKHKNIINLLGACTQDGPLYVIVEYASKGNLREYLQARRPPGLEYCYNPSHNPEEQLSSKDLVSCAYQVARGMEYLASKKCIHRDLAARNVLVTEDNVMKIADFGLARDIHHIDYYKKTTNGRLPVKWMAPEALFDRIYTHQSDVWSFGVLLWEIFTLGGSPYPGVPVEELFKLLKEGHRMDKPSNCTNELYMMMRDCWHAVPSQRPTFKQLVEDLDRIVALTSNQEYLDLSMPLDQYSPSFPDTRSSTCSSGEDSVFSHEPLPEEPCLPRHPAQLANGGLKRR
# [3] = target: Fibroblast growth factor receptor 3 (Homo sapiens, UniProt P22607); assay: Inhibition of recombinant human FGFR3 using poly (Glu,Tyr) 4:1 as substrate after 60 mins by ELISA
# Sequence of Fibroblast growth factor receptor 3 (P22607 whole entry): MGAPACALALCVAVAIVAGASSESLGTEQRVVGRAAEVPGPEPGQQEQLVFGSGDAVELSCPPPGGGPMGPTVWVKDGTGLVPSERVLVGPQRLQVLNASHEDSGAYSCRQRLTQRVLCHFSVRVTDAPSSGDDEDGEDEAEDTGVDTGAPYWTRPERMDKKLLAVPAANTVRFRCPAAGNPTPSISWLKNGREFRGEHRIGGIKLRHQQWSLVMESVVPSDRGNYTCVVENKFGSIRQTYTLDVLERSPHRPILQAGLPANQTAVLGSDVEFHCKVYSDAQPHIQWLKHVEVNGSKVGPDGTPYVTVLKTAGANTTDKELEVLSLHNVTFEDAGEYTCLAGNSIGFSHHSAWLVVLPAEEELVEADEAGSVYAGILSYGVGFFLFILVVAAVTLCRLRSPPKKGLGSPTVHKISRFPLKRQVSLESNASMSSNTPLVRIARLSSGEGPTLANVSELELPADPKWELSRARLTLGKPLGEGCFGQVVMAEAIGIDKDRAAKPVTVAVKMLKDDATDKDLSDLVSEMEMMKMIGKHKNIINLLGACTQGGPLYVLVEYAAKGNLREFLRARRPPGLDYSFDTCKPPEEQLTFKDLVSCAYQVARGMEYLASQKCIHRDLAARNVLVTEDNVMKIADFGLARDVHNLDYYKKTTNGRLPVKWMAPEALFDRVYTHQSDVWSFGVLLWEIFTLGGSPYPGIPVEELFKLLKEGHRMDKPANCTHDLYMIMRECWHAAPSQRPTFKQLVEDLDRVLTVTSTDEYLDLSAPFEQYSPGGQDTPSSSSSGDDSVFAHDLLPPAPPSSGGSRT
# [4] = Inhibition of FGFR3 mutant in human UM-UC-14 cells assessed as inhibition of cell proliferation after 72 hrs by cell counting kit-8 assay; type: cell-based; settings: UMUC14, 72 h
# Sequence of Fibroblast growth factor receptor 2 (P21802 whole entry): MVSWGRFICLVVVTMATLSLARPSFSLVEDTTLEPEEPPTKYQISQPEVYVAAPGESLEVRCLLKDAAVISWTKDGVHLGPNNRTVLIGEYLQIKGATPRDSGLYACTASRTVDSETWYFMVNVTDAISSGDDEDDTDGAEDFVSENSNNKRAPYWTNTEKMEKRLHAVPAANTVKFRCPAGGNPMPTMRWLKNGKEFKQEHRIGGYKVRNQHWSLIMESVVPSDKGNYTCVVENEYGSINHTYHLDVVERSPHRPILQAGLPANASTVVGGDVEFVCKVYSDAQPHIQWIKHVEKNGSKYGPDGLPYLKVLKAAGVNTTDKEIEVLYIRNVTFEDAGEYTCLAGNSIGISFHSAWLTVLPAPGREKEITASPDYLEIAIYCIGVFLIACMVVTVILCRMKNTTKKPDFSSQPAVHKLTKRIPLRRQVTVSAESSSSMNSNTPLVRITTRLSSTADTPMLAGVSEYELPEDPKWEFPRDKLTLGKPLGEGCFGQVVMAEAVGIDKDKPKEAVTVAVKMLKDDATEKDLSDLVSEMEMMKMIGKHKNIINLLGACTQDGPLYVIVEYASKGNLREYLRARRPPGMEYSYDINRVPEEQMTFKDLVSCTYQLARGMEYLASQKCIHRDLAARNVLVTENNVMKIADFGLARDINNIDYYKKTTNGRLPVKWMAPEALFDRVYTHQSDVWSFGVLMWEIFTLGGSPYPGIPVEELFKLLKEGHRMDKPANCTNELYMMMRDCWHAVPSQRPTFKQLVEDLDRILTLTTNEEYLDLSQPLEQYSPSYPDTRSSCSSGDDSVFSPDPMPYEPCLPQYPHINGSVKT
SMILES,pIC50 [1],pIC50 [2],pIC50 [3],pIC50 [4]
CC(=O)Nc1ccc(-c2cc(N[C@@H](CO)c3ccccc3)cnc2-c2cc(Cl)ccc2O)cc1,< 6.00,< 6.00,< 6.00,–
Cc1n[nH]c2ccc(-c3cc(N[C@H](CO)c4ccccc4)cnc3-c3cc(Cl)ccc3O)cc12,< 6.00,< 6.00,< 6.00,–
COc1cc(CCc2cc(NC(=O)c3ccc(N4C[C@@H](C)N[C@@H](C)C4)cc3)n[nH]2)cc(OC)c1 [FEXAGRATINIB],–,–,–,7.57
Cc1n[nH]c2ccc(-c3cc(NCCCO)cnc3-c3cc(F)ccc3O)cc12,< 6.00,< 6.00,< 6.00,–
Cc1n[nH]c2ccc(-c3cc(N[C@@H](C)c4ccccc4)cnc3-c3cc(Cl)ccc3O)cc12,< 6.00,< 6.00,< 6.00,–
Cc1n[nH]c2ccc(-c3cc(N[C@@H](CO)c4ccccc4)cnc3-c3cc(C(C)C)ccc3O)cc12,< 6.00,< 6.00,< 6.00,–
Cc1n[nH]c2ccc(-c3cc(N[C@@H](CO)c4ccccc4)cnc3-c3ccccc3C(F)(F)F)cc12,< 6.00,< 6.00,< 6.00,–
Cc1n[nH]c2ccc(-c3cc(N[C@@H](CO)c4ccccc4)cnc3-c3ccoc3)cc12,< 6.00,5.42,< 6.00,–
OC[C@H](Nc1cnc(-c2cc(Cl)ccc2O)c(-c2ccc3[nH]ccc3c2)c1)c1ccccc1,< 6.00,< 6.00,< 6.00,–
Cc1n[nH]c2ccc(-c3cc(NCCO)cnc3-c3cc(F)ccc3O)cc12,< 6.00,< 6.00,< 6.00,–
COc1ccccc1-c1ncc(N[C@@H](CO)c2ccccc2)cc1-c1ccc2[nH]nc(C)c2c1,6.00 to 7.00,< 6.00,< 6.00,–
Cc1n[nH]c2ccc(-c3cc(N[C@@H](CO)c4ccccc4)cnc3-c3cccnc3)cc12,< 6.00,< 6.00,< 6.00,–
Cc1n[nH]c2ccc(-c3cc(N[C@@H](CO)c4ccccc4)cnc3-c3cccs3)cc12,6.00 to 7.00,< 6.00,< 6.00,–
Cc1n[nH]c2ccc(-c3cc(N[C@@H](CO)c4ccccc4)cnc3-c3cccc4cccnc34)cc12,< 6.00,< 6.00,< 6.00,–

# Now from value to molecule, other results behind:
pIC50 [1],pIC50 [2],pIC50 [3],SMILES,pIC50 [4]
6.00 to 7.00,< 6.00,< 6.00,Cc1n[nH]c2ccc(-c3cc(N[C@@H](CO)c4ccccc4)cnc3-c3ccco3)cc12,–
7.30,6.78,6.60,Cc1n[nH]c2ccc(-c3cc(N[C@@H](CO)c4ccccc4)cnc3-c3ccccc3CO)cc12,–
8.55,7.97,7.56,Cc1n[nH]c2ccc(-c3cc(N[C@@H](CO)c4ccccc4)cnc3-c3cc(F)c(F)cc3O)cc12,–
7.25,6.34,6.25,Cc1n[nH]c2ccc(-c3cc(N[C@@H](CO)c4ccccc4)cnc3-c3cccc4cc[nH]c34)cc12,–
8.60,7.55,7.45,Cc1n[nH]c2ccc(-c3cc(N[C@@H](CO)c4ccccc4)cnc3-c3cccc(F)c3O)cc12,–
7.67,7.18,6.36,Cc1n[nH]c2ccc(-c3cc(N[C@@H](CO)c4ccccc4)cnc3-c3cccc(O)c3)cc12,–
6.81,7.04,6.23,O=C1Cc2cc(-c3cc(N[C@@H](CO)c4ccccc4)cnc3-c3cc(Cl)ccc3O)ccc2N1,–
7.58,6.89,6.55,Cc1n[nH]c2ccc(-c3cc(N[C@@H](CO)c4ccccc4)cnc3-c3ccccc3)cc12,–
7.24,6.48,6.01,Cc1n[nH]c2ccc(-c3cc(N[C@@H](CO)c4ccccc4)cnc3-c3ccsc3)cc12,–
8.47,7.20,7.23,Cc1n[nH]c2ccc(-c3cc(N[C@@H](CO)c4ccccc4)cnc3-c3cc(F)cc(F)c3O)cc12,–
8.18,7.60,7.03,Cc1n[nH]c2ncc(-c3cc(N[C@@H](CO)c4ccccc4)cnc3-c3cc(Cl)ccc3O)cc12,–
7.79,7.49,7.64,Cc1ccc(O)c(-c2ncc(N[C@@H](CO)c3ccccc3)cc2-c2ccc3[nH]nc(C)c3c2)c1,–
7.14,6.77,6.40,Cc1n[nH]c2ccc(-c3cc(NC[C@H](O)c4ccccc4)cnc3-c3cc(Cl)ccc3O)cc12,–
8.52,7.83,8.10,Cc1n[nH]c2ccc(-c3cc(N[C@@H](CO)c4ccccc4)cnc3-c3ccccc3O)cc12,–
6.60,6.38,5.44,CC(=O)Nc1ccccc1-c1ncc(N[C@@H](CO)c2ccccc2)cc1-c1ccc2[nH]nc(C)c2c1,–
7.35,6.36,6.37,Cc1n[nH]c2ccc(-c3cc(N[C@@H](CO)c4ccccc4)cnc3-c3ccccc3F)cc12,–
7.14,7.31,6.41,Cc1n[nH]c2ccc(-c3cc(N[C@@H](CO)c4ccccc4)cnc3-c3ccccc3C(N)=O)cc12,–
